Test results reported in publication PMC8742467, “Therapeutical interference with the epigenetic landscape of germ cell tumors: a comparative drug study and new mechanistical insights” (Clinical Epigenetics, 2022).

What was measured:
GCT cell lines = assay: XTT cell viability assay, GCT cell lines (pre-screen / summary); assay type: cell-based, Human; conditions: first pre-screen, SE and EC proxies TCam-2 and 2102EP, XTT
Outline: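 Seeding density of 5 × 10^3 cells per well applied to both tumour and fibroblast lines; compounds or vehicle followed after overnight attachment. Metabolic activity by XTT, four technical repeats, EC50 calculated.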

2102EP-R [1] = assay: Flow cytometry apoptosis (Annexin V/PI), 2102EP-R; assay type: cell-based, Human; conditions: EC50, 16 h, compared to the parental cell line
fibroblast control cells = assay: Flow cytometry apoptosis (Annexin V/PI), fibroblasts; assay type: cell-based, Human; conditions: EC50, 16 h
Experimental: (§1) For Annexin V/PI staining, cells were washed with Annexin V Binding Buffer before being resuspended in 70 µl Annexin V Binding Buffer and 2.5 μl Annexin V FITC-conjugate (both Miltenyi Biotec, Bergisch Gladbach, Germany) and 15 µg PI (Sigma-Aldrich, Taufkirchen, Germany) and incubated in the dark at room temperature for 15 min. 500 µl of Annexin V Binding Buffer was added before measurement. For the cell cycle analysis, cells were washed with PBS (phosphate buffered saline), fixed by ice cold 70% ethanol and stained with 2 µg/ml PI and 200 µg/ml RNaseA (Quiagen, Hilden, Germany 100 mg/ml) in PBS shortly before every measurement. At least 5 × 10^4 cells were counted and analyzed using the MACSQuant software v 2.13.0.

2102EP-R [2] = assay: Flow cytometry cell cycle (PI), 2102EP-R; assay type: cell-based, Human; conditions: EC50, 16 h
Experimental: as §1

GCT cells = assay: Flow cytometry cell cycle (PI), GCT cells; assay type: cell-based, Human; conditions: EC50, 16 h
Experimental: as §1

[3] = tested on: histone modifications in 2102EP cells; assay: Mass spectrometry analysis of histone modifications (Mod Spec); assay type: cell-based, Human
Experimental: 2102EP cells were treated with the EC50 concentrations for Quisinostat, JIB-04, Chaetocin, MZ-1, LP99, PRT4165, GSK343 and DMSO as solvent control. The cells were harvested via trypsinization after 16 h. The mass spectrometric analysis of histone modifications was outsourced to the Mod Spec service by Active Motif (Carlsbad, CA, USA). Histone extraction and mass spectrometric analysis was performed as described previously. Raw data were transformed into z-scores as the input. The heatmap was generated in R using ‘pheatmap’ with default settings and provided by Active Motif.

[4] = tested on: DNA methylation (5mC, 5hmC) in 2102EP cells; assay: DNA slot blot (5mC, 5hmC); assay type: cell-based, Human; conditions: 24 h
Experimental: Purity of DNA was verified using NanoDrop 260/280 ratio and agarose gel electrophoresis. DNA was diluted in H2O to 200 ng, 100 ng and 50 ng in 200 µl per slot. Slot-Blotter device (Carl Roth GmbH + Co KG, Karlsruhe, Germany) was assembled as according to the manual. DNA was blotted onto a positively charged nylon membrane (Carl Roth GmbH + Co KG, Karlsruhe, Germany) using vacuum application. Three identical membranes were prepared. The membranes were air-dried for 15—20 min and UV-crosslinked (20 s (s), 1200 mJ/cm^2). One membrane was stained with methylene blue (0.02% methylene blue (Merck Millipore, Darmstadt, Germany) in 0.3 M sodium acetate (pH 5.2)) to validate DNA loading across the samples. The remaining two membranes were blocked in 5% milk powder in PBST for 1 h at RT. Membranes were incubated with 5mC or 5hmC antibody overnight at 4 °C. After washing, membranes were incubated with secondary antibody for 2 h at RT. Signals were detected using the ChemiDoc Imaging Systems (Bio-Rad Laboratories, Feldkirchen, Germany).

[5] = tested on: transcriptome of 2102EP cells; assay: RNA sequencing; assay type: cell-based, Human; conditions: 16 h
Experimental: Transcriptome analysis has been performed as previously described at the core facility ‘Genomics & Transcriptomics’ (Prof. Dr. Karl Köhrer, Biomedical Research Center, Heinrich Heine University, Düsseldorf, Germany) and has been publicly shared via GEO (https://www.ncbi.nlm.nih.gov/geo/, GSE189472). RNA samples were quantified and measured as previously described. Statistical analyses were performed using the ‘Differential Expression in two groups’ tool (version 1.02) (Qiagen) and the resulting p values were corrected for multiple testing by false discovery rate (FDR). Accompanying PCA and heatmap were generated using Qlucore Omics Explorer 3.7 (Qlucore AB, Lund, Sweden). Values of solvent controls wereaveraged from the studies GSE189472, GSE190792 and GSE190022 [95].

[6] = tested on: phosphorylated kinase targets in 2102EP cells; assay: Proteome Profiler Human Phospho-Kinase Array; assay type: cell-based; conditions: 16 h
Experimental: For the detection of phosphorylated kinase targets, the Proteome Profiler Human Phospho-Kinase Array Kit (R&D Systems, Abingdon, UK) was used according to the manufacturer’s instructions. The ChemiDoc Imaging System (Bio-Rad Laboratories, Feldkirchen, Germany) was used for detection. 2102EP cells were harvested after 16 h of treatment with the epi-drugs. Pixel density was analyzed using Fiji ImageJ 1.53c.

[7] = 2102EP cells, Mod Spec raw data

Cc1ncsc1-c1ccc(CNC(=O)[C@@H]2C[C@@H](O)CN2C(=O)[C@@H](NC(=O)COCCOCCOCCNC(=O)C[C@@H]2N=C(c3ccc(Cl)cc3)c3c(sc(C)c3C)-n3c(C)nnc32)C(C)(C)C)cc1 [MZ-1]
EC50 / effective concentration in words (GCT cell lines): nanomolar range | apoptosis induction in 2102EP-R (2102EP-R [1]): did not induce apoptosis | apoptosis induction in fibroblast control cells (fibroblast control cells): only a weak apoptosis induction | cell cycle arrest in 2102EP-R (2102EP-R [2]): induced a cell cycle arrest | cell cycle phase accumulation in GCT cells (GCT cells): accumulated in the G0/G1 phase | H1.4: K25AC, % of peptide pool [3, 7]: 0.008625% | H1.4: K25ME1, % of peptide pool [3, 7]: 2.068% | H1.4: K25ME2, % of peptide pool [3, 7]: 0.007907% | H1.4: K25ME3, % of peptide pool [3, 7]: 0.004447% | H1.4: K25UN, % of peptide pool [3, 7]: 97.9109% | H2A1: K13AC, % of peptide pool [3, 7]: 0.01664% | H2A1: K13UN, % of peptide pool [3, 7]: 99.9834% | H2A1: K15AC, % of peptide pool [3, 7]: 0.002429% | H2A1: K15UB, % of peptide pool [3, 7]: 0% | H2A1: K15UN, % of peptide pool [3, 7]: 99.9976% | H2A3: K13AC, % of peptide pool [3, 7]: 0.02309% | H2A3: K13UN, % of peptide pool [3, 7]: 99.9769% | H2A3: K15AC, % of peptide pool [3, 7]: 0.2972% | H2A3: K15UB, % of peptide pool [3, 7]: 0% | H2A3: K15UN, % of peptide pool [3, 7]: 99.7028% | H2A: K5AC, % of peptide pool [3, 7]: 16.7692% | H2A: K5UN, % of peptide pool [3, 7]: 83.2308% | H2A: K9AC, % of peptide pool [3, 7]: 1.92% | H2A: K9UN, % of peptide pool [3, 7]: 98.08% | H2A: K36AC, % of peptide pool [3, 7]: 0.02873% | H2A: K36UN, % of peptide pool [3, 7]: 99.9713% | H3: K9AC, % of peptide pool [3, 7]: 0.8879% | H3: K9ME1, % of peptide pool [3, 7]: 31.6276% | H3: K9ME2, % of peptide pool [3, 7]: 28.3662% | H3: K9ME3, % of peptide pool [3, 7]: 2.878% | H3: K9UN, % of peptide pool [3, 7]: 36.24% | H3: K14AC, % of peptide pool [3, 7]: 33.1456% | H3: K14UN, % of peptide pool [3, 7]: 66.8544% | H3: K18AC, % of peptide pool [3, 7]: 15.0157% | H3: K18ME1, % of peptide pool [3, 7]: 0.179% | H3: K18UN, % of peptide pool [3, 7]: 84.8052% | H3: K23AC, % of peptide pool [3, 7]: 21.7451% | H3: K23ME1, % of peptide pool [3, 7]: 0.008431% | H3: K23UN, % of peptide pool [3, 7]: 78.2464% | H3: K56AC, % of peptide pool [3, 7]: 0.06901% | H3: K56ME1, % of peptide pool [3, 7]: 0.03638% | H3: K56UN, % of peptide pool [3, 7]: 99.8946% | H3: K64AC, % of peptide pool [3, 7]: 0.06102% | H3: K64UN, % of peptide pool [3, 7]: 99.939% | H3: K79AC, % of peptide pool [3, 7]: 0.05432% | H3: K79ME1, % of peptide pool [3, 7]: 14.344% | H3: K79ME2, % of peptide pool [3, 7]: 7.357% | H3: K79ME3, % of peptide pool [3, 7]: 10.1837% | H3: K79UN, % of peptide pool [3, 7]: 68.0612% | H3: K122AC, % of peptide pool [3, 7]: 0.03608% | H3: K122UN, % of peptide pool [3, 7]: 99.9639% | H3: Q19ME1, % of peptide pool [3, 7]: 0.004515% | H3: Q19UN, % of peptide pool [3, 7]: 99.9955% | H3: Q55ME1, % of peptide pool [3, 7]: 0.1937% | H3: Q55UN, % of peptide pool [3, 7]: 99.8063% | H3: R42ME2, % of peptide pool [3, 7]: 1.387% | H3: R42UN, % of peptide pool [3, 7]: 98.6131% | H3: R49ME2, % of peptide pool [3, 7]: 3.092% | H3: R49UN, % of peptide pool [3, 7]: 96.9084% | H3R2UN: K4AC, % of peptide pool [3, 7]: 0.04633% | H3R2UN: K4ME1, % of peptide pool [3, 7]: 16.637% | H3R2UN: K4ME2, % of peptide pool [3, 7]: 0.2165% | H3R2UN: K4ME3, % of peptide pool [3, 7]: 0.04192% | H3R2UN: K4UN, % of peptide pool [3, 7]: 83.0582% | H3R2UN: Q5ME1, % of peptide pool [3, 7]: 0.08148% | H3R2UN: Q5UN, % of peptide pool [3, 7]: 99.9185% | H3.1: K27AC, % of peptide pool [3, 7]: 2.915% | H3.1: K27ME1, % of peptide pool [3, 7]: 46.4162% | H3.1: K27ME2, % of peptide pool [3, 7]: 19.546% | H3.1: K27ME3, % of peptide pool [3, 7]: 2.363% | H3.1: K27UN, % of peptide pool [3, 7]: 28.7602% | H3.1: K36AC, % of peptide pool [3, 7]: 0.09043% | H3.1: K36ME1, % of peptide pool [3, 7]: 14.1558% | H3.1: K36ME2, % of peptide pool [3, 7]: 48.8646% | H3.1: K36ME3, % of peptide pool [3, 7]: 20.4408% | H3.1: K36UN, % of peptide pool [3, 7]: 16.4484% | H3.3: K27AC, % of peptide pool [3, 7]: 6.233% | H3.3: K27M, % of peptide pool [3, 7]: 0% | H3.3: K27ME1, % of peptide pool [3, 7]: 47.8396% | H3.3: K27ME2, % of peptide pool [3, 7]: 15.5733% | H3.3: K27ME3, % of peptide pool [3, 7]: 3.5424% | H3.3: K27UN, % of peptide pool [3, 7]: 26.8119% | H3.3: K36AC, % of peptide pool [3, 7]: 1.864% | H3.3: K36ME1, % of peptide pool [3, 7]: 12.2128% | H3.3: K36ME2, % of peptide pool [3, 7]: 53.2755% | H3.3: K36ME3, % of peptide pool [3, 7]: 19.9611% | H3.3: K36UN, % of peptide pool [3, 7]: 12.6864% | H4: K5AC, % of peptide pool [3, 7]: 7.836% | H4: K5UN, % of peptide pool [3, 7]: 92.164% | H4: K8AC, % of peptide pool [3, 7]: 12.4074% | H4: K8UN, % of peptide pool [3, 7]: 87.5926% | H4: K12AC, % of peptide pool ([3]; 2102EP cells, Mod Spec raw data, histone H4 K12 acetylated): 7.206 % of peptide pool | H4: K12UN, % of peptide pool ([3]; 2102EP cells, Mod Spec raw data, histone H4 K12 unmodified): 92.7945 % of peptide pool | H4: K16AC, % of peptide pool ([3]; 2102EP cells, Mod Spec raw data, histone H4 K16 acetylated): 49.1827 % of peptide pool | H4: K16UN, % of peptide pool ([3]; 2102EP cells, Mod Spec raw data, histone H4 K16 unmodified): 50.8173 % of peptide pool | H4: K20AC, % of peptide pool ([3]; 2102EP cells, Mod Spec raw data, histone H4 K20 acetylated): 21.1654 % of peptide pool | H4: K20ME2, % of peptide pool ([3]; 2102EP cells, Mod Spec raw data, histone H4 K20 dimethylated): 54.2158 % of peptide pool | H4: K20ME1, % of peptide pool ([3]; 2102EP cells, Mod Spec raw data, histone H4 K20 monomethylated): 4.396 % of peptide pool | H4: K20ME3, % of peptide pool ([3]; 2102EP cells, Mod Spec raw data, histone H4 K20 trimethylated): 2.467 % of peptide pool | H4: K20UN, % of peptide pool ([3]; 2102EP cells, Mod Spec raw data, histone H4 K20 unmodified): 17.7556 % of peptide pool | change of histone modifications of the expected mode of action (Mod Spec) ([3]; 2102EP, EC50, 16 h, vs solvent control): increase in H3K64ac and H2A3K15ac | 5hmC levels increase compared to solvent control [4]: 19% | 5mC levels compared to solvent control ([4]; solvent control set to 100%): 70% | EIF3CL Log2 fold change vs. DMSO ([5]; sorted data log2>±1.5, FDR p<0.05): -2.31 | A1BG Log2 fold change vs. DMSO ([5]; unsorted data): -0.0752 | A1CF Log2 fold change vs. DMSO ([5]; unsorted data): -1.99 | A2M Log2 fold change vs. DMSO ([5]; unsorted data): 0.0948 | CREB, STAT3 and STAT5 phosphorylation and total levels of β-Catenin and HSP60 [6]: decreased | ERK1/2 phosphorylation [6]: decreased
